Laboratory results: article PMC3961306, “Comparison of the Cancer Gene Targeting and Biochemical Selectivities of All Targeted Kinase Inhibitors Approved for Clinical Use” (PLoS ONE, 2014)

How the values were obtained:
Assay in all cases: Kinase profiling in a biochemical assay panel (mobility shift assays and ELISA), %-inhibition at 1 μM; selectivity entropy
[1] = target: panel of more than 300 wild-type and mutant kinases (313 kinase panel) (Homo sapiens, UniProt P53350)
[2] = target: T1, panel of more than 300 wild-type and mutant kinases (313 kinase panel) (Homo sapiens, UniProt P52333)
T1 sequence (P52333 1-1124): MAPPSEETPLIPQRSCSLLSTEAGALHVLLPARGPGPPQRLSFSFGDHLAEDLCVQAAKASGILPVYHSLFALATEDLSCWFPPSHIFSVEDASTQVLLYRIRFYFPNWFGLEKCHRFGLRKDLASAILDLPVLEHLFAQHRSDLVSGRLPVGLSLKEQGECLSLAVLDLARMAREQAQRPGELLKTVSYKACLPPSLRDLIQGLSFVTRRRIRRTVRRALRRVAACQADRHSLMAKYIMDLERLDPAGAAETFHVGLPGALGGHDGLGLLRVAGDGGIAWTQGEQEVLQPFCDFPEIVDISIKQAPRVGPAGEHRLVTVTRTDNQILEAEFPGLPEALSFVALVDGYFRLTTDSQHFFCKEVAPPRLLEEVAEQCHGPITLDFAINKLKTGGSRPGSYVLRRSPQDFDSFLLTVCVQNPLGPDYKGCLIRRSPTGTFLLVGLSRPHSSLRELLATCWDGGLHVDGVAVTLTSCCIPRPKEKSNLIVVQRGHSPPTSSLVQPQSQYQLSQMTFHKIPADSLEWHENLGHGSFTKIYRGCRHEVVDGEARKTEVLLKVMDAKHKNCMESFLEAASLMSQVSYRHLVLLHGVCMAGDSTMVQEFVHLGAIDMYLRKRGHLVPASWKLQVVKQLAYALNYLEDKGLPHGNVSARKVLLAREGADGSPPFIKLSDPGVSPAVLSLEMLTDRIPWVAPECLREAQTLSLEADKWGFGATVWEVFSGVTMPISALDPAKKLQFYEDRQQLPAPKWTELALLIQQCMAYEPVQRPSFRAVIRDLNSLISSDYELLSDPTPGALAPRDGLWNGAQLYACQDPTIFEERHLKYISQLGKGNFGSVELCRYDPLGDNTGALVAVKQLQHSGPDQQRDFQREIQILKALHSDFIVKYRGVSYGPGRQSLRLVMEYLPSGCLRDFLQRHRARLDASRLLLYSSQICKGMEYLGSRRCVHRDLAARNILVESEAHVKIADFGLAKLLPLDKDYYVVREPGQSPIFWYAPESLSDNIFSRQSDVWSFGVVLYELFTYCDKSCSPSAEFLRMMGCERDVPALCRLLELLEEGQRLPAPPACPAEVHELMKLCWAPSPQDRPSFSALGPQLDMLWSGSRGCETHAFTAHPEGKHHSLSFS

[3] = target: T2, panel of more than 300 wild-type and mutant kinases (313 kinase panel) (Homo sapiens, UniProt Q9UF33)
T2 sequence (Q9UF33 23-1036): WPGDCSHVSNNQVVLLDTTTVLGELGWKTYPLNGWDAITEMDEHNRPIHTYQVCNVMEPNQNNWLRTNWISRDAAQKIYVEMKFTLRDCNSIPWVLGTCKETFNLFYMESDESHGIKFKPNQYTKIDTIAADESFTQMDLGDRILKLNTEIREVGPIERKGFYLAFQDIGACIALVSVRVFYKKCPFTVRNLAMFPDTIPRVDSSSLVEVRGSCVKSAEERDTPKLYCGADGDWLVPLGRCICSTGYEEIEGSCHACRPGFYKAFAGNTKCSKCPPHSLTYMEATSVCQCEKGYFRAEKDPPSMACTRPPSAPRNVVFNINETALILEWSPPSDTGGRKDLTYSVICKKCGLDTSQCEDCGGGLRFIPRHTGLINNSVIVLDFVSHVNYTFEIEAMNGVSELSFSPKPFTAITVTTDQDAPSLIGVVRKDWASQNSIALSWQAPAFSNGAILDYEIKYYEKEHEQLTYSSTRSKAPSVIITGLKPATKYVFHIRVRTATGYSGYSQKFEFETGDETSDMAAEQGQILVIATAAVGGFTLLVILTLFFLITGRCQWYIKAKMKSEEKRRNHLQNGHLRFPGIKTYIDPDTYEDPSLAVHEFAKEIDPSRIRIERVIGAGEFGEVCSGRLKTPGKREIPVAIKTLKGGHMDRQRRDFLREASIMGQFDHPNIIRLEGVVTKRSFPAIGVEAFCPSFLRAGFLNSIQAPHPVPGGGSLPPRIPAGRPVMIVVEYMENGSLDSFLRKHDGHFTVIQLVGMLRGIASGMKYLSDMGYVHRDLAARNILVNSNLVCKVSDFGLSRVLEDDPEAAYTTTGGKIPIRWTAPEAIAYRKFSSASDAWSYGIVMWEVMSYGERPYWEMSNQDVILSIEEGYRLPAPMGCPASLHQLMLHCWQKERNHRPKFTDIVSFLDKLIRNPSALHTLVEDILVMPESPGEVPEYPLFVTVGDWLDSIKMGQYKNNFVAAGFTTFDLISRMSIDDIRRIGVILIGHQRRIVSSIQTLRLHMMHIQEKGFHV

[4] = target: panel of more than 300 wild-type and mutant kinases (313 kinase panel) (Homo sapiens, UniProt P50613)
[5] = target: panel of more than 300 wild-type and mutant kinases (313 kinase panel) (Homo sapiens, UniProt P45984)
[6] = kinase CDK7/CycH/MAT1, 1 μM compound

Chain of panel of more than 300 wild-type and mutant kinases (313 kinase panel) (Homo sapiens, UniProt P45984) (P45984 whole entry, change not shown): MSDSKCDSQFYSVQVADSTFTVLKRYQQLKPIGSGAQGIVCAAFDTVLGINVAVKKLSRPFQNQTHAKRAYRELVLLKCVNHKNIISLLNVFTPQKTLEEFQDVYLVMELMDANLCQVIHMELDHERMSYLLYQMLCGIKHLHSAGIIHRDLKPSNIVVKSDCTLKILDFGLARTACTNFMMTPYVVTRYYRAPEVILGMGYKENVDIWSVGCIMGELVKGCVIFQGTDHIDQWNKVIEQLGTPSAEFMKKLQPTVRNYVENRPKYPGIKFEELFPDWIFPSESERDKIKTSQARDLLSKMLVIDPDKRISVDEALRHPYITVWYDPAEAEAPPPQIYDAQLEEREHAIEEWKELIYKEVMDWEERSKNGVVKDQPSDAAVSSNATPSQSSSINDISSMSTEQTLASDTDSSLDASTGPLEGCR
Chain of panel of more than 300 wild-type and mutant kinases (313 kinase panel) (Homo sapiens, UniProt P50613) (P50613 whole entry, change not shown): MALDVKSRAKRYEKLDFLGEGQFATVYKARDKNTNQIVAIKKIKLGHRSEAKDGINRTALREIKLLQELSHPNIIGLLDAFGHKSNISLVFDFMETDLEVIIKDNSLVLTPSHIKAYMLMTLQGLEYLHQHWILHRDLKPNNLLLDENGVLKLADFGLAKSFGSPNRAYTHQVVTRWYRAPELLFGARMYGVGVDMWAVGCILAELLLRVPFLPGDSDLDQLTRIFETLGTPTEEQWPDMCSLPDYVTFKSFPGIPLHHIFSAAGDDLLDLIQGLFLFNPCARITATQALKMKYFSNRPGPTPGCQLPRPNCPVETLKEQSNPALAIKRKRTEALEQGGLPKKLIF

SMILES	%-inhibition of PLK1 ([1]; kinase PLK1, 1 μM) [%]	%-inhibition of JAK3 ([2]; kinase JAK3, compound at 1 μM) [%]	%-inhibition of EPHA6 ([3]; kinase EPHA6, compound at 1 μM) [%]	%-inhibition, CDK7/CycH/MAT1 [4, 6] [%]	%-inhibition of JNK2 ([5]; kinase JNK2, compound at 1 μM) [%]	%-inhibition of PLK1 ([1]; 1 µM) [%]	%-inhibition of JAK3 ([2]; 1 µM) [%]	%-inhibition of JNK2 ([5]; 1 µM) [%]	%-inhibition of EPHA6 ([3]; 1 µM) [%]	%-inhibition, CDK7/CycH/MAT1 ([4]; 1 µM) [%]
Cc1ccc(C(=O)Nc2ccc(CN3CCN(C)CC3)c(C(F)(F)F)c2)cc1C#Cc1cnc2cccnn12 [ponatinib]	-6	98	103	9						
CC(C)(C)c1nc(-c2cccc(NS(=O)(=O)c3c(F)cccc3F)c2F)c(-c2ccnc(N)n2)s1 [dabrafenib]	-9	22	88		-0.947					
COc1cc(Nc2c(C#N)cnc3cc(OCCCN4CCN(C)CC4)c(OC)cc23)c(Cl)cc1Cl [bosutinib]	5	67	102	-4.35						
CO[C@H]1C[C@@H]2CC[C@@H](C)[C@@](O)(O2)C(=O)C(=O)N2CCCC[C@H]2C(=O)O[C@H]([C@H](C)C[C@@H]2CC[C@@H](OC(=O)C(C)(CO)CO)[C@H](OC)C2)CC(=O)[C@H](C)/C=C(\C)[C@@H](O)[C@@H](OC)C(=O)[C@H](C)C[C@H](C)/C=C/C=C/C=C/1C [temsirolimus]	-0.295	-2	0.437	-8	-4.61					
C#Cc1cccc(Nc2ncnc3cc(OCCOC)c(OCCOC)cc23)c1 [erlotinib]						-10	55	13	69	1.22
CCCS(=O)(=O)Nc1ccc(F)c(C(=O)c2c[nH]c3ncc(-c4ccc(Cl)cc4)cc23)c1F [vemurafenib]	-4	10	37	0.137	-0.0632					
N#CC[C@H](C1CCCC1)n1cc(-c2ncnc3[nH]ccc23)cn1 [ruxolitinib]	25		-1.06		-6					3.25
CC(=O)Nc1cccc(-n2c(=O)n(C3CC3)c(=O)c3c(Nc4ccc(I)cc4F)n(C)c(=O)c(C)c32)c1 [trametinib]	-9	6		-6	-4.73				-2.51	
COc1cc2c(Nc3ccc(Br)cc3F)ncnc2cc1OCC1CCN(C)CC1 [vandetanib]	-3.6	2.34		-4.26	-4					
CS(=O)(=O)CCNCc1ccc(-c2ccc3ncnc(Nc4ccc(OCc5cccc(F)c5)c(Cl)c4)c3c2)o1 [lapatinib]		-6	20	2	-8	-2.71				
CO[C@H]1C[C@@H]2CC[C@@H](C)[C@@](O)(O2)C(=O)C(=O)N2CCCC[C@H]2C(=O)O[C@H]([C@H](C)C[C@@H]2CC[C@@H](OCCO)[C@H](OC)C2)CC(=O)[C@H](C)/C=C(\C)[C@@H](O)[C@@H](OC)C(=O)[C@H](C)C[C@H](C)/C=C/C=C/C=C/1C [everolimus]	0.059	-4.43	2.18	-6	-5.37					
CNC(=O)c1cc(Oc2ccc(NC(=O)Nc3ccc(Cl)c(C(F)(F)F)c3)c(F)c2)ccn1 [regorafenib]	-0.767	31	103	-3	57					
O=S(=O)(c1cccc2cnccc12)N1CCCNCC1 [fasudil]	-8.49	4.46	6	7.49	-5					
C[C@@H](Oc1cc(-c2cnn(C3CCNCC3)c2)cnc1N)c1c(Cl)ccc(F)c1Cl [crizotinib]	-3	77	100	58	-2.59					
Cc1cn(-c2cc(NC(=O)c3ccc(C)c(Nc4nccc(-c5cccnc5)n4)c3)cc(C(F)(F)F)c2)cn1 [nilotinib]	-2.41	2.15	30	-2.34	9					
Cc1ccc(Nc2nccc(N(C)c3ccc4c(C)n(C)nc4c3)n2)cc1S(N)(=O)=O [pazopanib]	1.15	38	24	9						
COc1cc2nccc(Oc3ccc(NC(=O)C4(C(=O)Nc5ccc(F)cc5)CC4)cc3)c2cc1OC [cabozantinib]	-2	2.34	100	-10	4					
